This note sets out measurements from ChEMBL document CHEMBL3611972, “Leishmanicidal, antiproteolytic, and mutagenic evaluation of alkyltriazoles and alkylphosphocholines” (Eur J Med Chem, 2015).

The test system of series [1] is Salmonella typhimurium. The series can be described thus: Mutagenicity in Salmonella typhimurium TA97a assessed as mutagenicity index at 700.00 uM/plate incubated for 90 mins at 37 degC in absence of liver S9 fractions by Ames test relative to untreated control. The format is toxicity, organism-based. The following applies: salmonella enterica subsp. enterica serovar typhimurium, 1.5 h. For orientation: In the Ames test, an excess of revertant colonies over the control signals mutagenicity.

Series [2] deals with Salmonella typhimurium. As to the kind of experiment: Mutagenicity in Salmonella typhimurium TA100 assessed as mutagenicity index at 150.98 uM/plate incubated for 90 mins at 37 degC in absence of liver S9 fractions by Ames test relative to untreated control. Format: toxicity, organism-based. Conditions: salmonella enterica subsp. enterica serovar typhimurium, 1.5 h.
The test system of series [3] is Leishmania amazonensis. As to the kind of experiment: Leishmanicidal activity against Leishmania amazonensis MHOM/BR/71973/M2269 amastigotes infected in mouse peritoneal macrophages assessed as reduction in surviving parasites incubated for 72 hrs by Giemsa staining based optical light microscopy. Format: functional, organism-based. Conditions: MHOM/BR/71973/M2269, 72 h.

In series [4] the test system is Salmonella typhimurium. The series can be described thus: Mutagenicity in Salmonella typhimurium TA100 assessed as mutagenicity index at 570.37 uM/plate incubated for 90 mins at 37 degC in absence of liver S9 fractions by Ames test relative to untreated control. Conditions: salmonella enterica subsp. enterica serovar typhimurium, 1.5 h. Format: toxicity, organism-based.

Series [5] deals with Salmonella typhimurium. As to the kind of experiment: Mutagenicity in Salmonella typhimurium TA102 assessed as mutagenicity index at 296.15 uM/plate incubated for 90 mins at 37 degC in presence of liver S9 fractions by Ames test relative to untreated control. Format: toxicity, organism-based. The following applies: salmonella enterica subsp. enterica serovar typhimurium, s9, 1.5 h.

Series [6] can be described thus: Selectivity index, ratio of CC50 for mouse peritoneal macrophages to IC50 for Leishmania amazonensis MHOM/BR/71973/M2269 amastigotes infected in mouse peritoneal macrophages. The format is functional.
Series [7] is described as follows: Inhibition of Leishmania mexicana cysteine protease r-CPB2.8 using Z-FR-AMC fluorogenic substrate by spectrofluorometry.
Series [8] concerns Salmonella typhimurium. The series can be described thus: Mutagenicity in Salmonella typhimurium TA97a assessed as mutagenicity index at 296.15 uM/plate incubated for 90 mins at 37 degC in absence of liver S9 fractions by Ames test relative to untreated control. The format is toxicity, organism-based. The following applies: salmonella enterica subsp. enterica serovar typhimurium, 1.5 h.

The test system of series [9] is Salmonella typhimurium. As to the kind of experiment: Mutagenicity in Salmonella typhimurium TA100 assessed as mutagenicity index at 700.00 uM/plate incubated for 90 mins at 37 degC in presence of liver S9 fractions by Ames test relative to untreated control. The format is toxicity, organism-based. The following applies: salmonella enterica subsp. enterica serovar typhimurium, s9, 1.5 h.

A short description of series [10]: Mutagenicity in CHOK1 cells assessed as induction of chromosomal DNA mutation by measuring micronuclei level at 6.41 to 25.63 incubated for 3 hrs by cytokinesis-block micronucleus assay. Format: toxicity, cell-based, Cricetulus griseus. Conditions: chinese hamster, cho-k1, 3 h.
Series [11] deals with Salmonella typhimurium. As to the kind of experiment: Mutagenicity in Salmonella typhimurium TA102 assessed as mutagenicity index at 435.85 uM/plate incubated for 90 mins at 37 degC in absence of liver S9 fractions by Ames test relative to untreated control. Format: toxicity, organism-based. Conditions: salmonella enterica subsp. enterica serovar typhimurium, 1.5 h.
The nature of series [12]: Cytotoxicity against mouse peritoneal macrophages assessed as reduction in cell viability incubated for 72 hrs by MTT assay. Format: cell-based, Peritoneal macrophage cell.
For series [13], the system named is Salmonella typhimurium. As to the kind of experiment: Mutagenicity in Salmonella typhimurium TA97a assessed as mutagenicity index at 435.85 uM/plate incubated for 90 mins at 37 degC in presence of liver S9 fractions by Ames test relative to untreated control. The following applies: salmonella enterica subsp. enterica serovar typhimurium, s9, 1.5 h. Format: toxicity, organism-based.

In series [14] the test system is Salmonella typhimurium. The series can be described thus: Mutagenicity in Salmonella typhimurium TA102 assessed as mutagenicity index at 700.00 uM/plate incubated for 90 mins at 37 degC in presence of liver S9 fractions by Ames test relative to untreated control. Format: toxicity, organism-based. The following applies: salmonella enterica subsp. enterica serovar typhimurium, s9, 1.5 h.

For series [15], the system named is Salmonella typhimurium. The series can be described thus: Mutagenicity in Salmonella typhimurium TA97a assessed as mutagenicity index at 150.98 uM/plate incubated for 90 mins at 37 degC in absence of liver S9 fractions by Ames test relative to untreated control. The format is toxicity, organism-based. The following applies: salmonella enterica subsp. enterica serovar typhimurium, 1.5 h.

The test system of series [16] is Salmonella typhimurium. As to the kind of experiment: Mutagenicity in Salmonella typhimurium TA102 assessed as mutagenicity index at 700.00 uM/plate incubated for 90 mins at 37 degC in absence of liver S9 fractions by Ames test relative to untreated control. Conditions: salmonella enterica subsp. enterica serovar typhimurium, 1.5 h. Format: toxicity, organism-based.

Series [17] deals with Leishmania amazonensis. As to the kind of experiment: microbe, parasite or virus in culture. Format: functional, organism-based. The following applies: MHOM/BR/71973/M2269, 72 h.
Description: Leishmanicidal activity against Leishmania amazonensis MHOM/BR/71973/M2269 promastigotes assessed as reduction in surviving parasites incubated for 72 hrs by Neubauer's chamber based cell counting method
Series [18] relates to Salmonella typhimurium. As to the kind of experiment: Mutagenicity in Salmonella typhimurium TA97a assessed as mutagenicity index at 150.98 uM/plate incubated for 90 mins at 37 degC in presence of liver S9 fractions by Ames test relative to untreated control. The format is toxicity, organism-based. The following applies: salmonella enterica subsp. enterica serovar typhimurium, s9, 1.5 h.

For series [19], the system named is Salmonella typhimurium. As to the kind of experiment: Mutagenicity in Salmonella typhimurium TA97a assessed as mutagenicity index at 616.38 uM/plate incubated for 90 mins at 37 degC in absence of liver S9 fractions by Ames test relative to control. The format is toxicity, organism-based. The following applies: salmonella enterica subsp. enterica serovar typhimurium, 1.5 h.

In series [20] the test system is Salmonella typhimurium. As to the kind of experiment: Mutagenicity in Salmonella typhimurium TA97a assessed as mutagenicity index at 1454.55 uM/plate incubated for 90 mins at 37 degC in presence of liver S9 fractions by Ames test relative to control. The format is toxicity, organism-based. The following applies: salmonella enterica subsp. enterica serovar typhimurium, s9, 1.5 h.

For series [21], the system named is Salmonella typhimurium. As to the kind of experiment: Mutagenicity in Salmonella typhimurium TA97a assessed as mutagenicity index at 1185.19 uM/plate incubated for 90 mins at 37 degC in presence of liver S9 fractions by Ames test relative to control. The format is toxicity, organism-based. The following applies: salmonella enterica subsp. enterica serovar typhimurium, s9, 1.5 h.

The subject of series [22] is Salmonella typhimurium. As to the kind of experiment: Mutagenicity in Salmonella typhimurium TA102 assessed as mutagenicity index at 1454.55 uM/plate incubated for 90 mins at 37 degC in presence of liver S9 fractions by Ames test relative to control. Format: toxicity, organism-based. Conditions: salmonella enterica subsp. enterica serovar typhimurium, s9, 1.5 h.
Series [23] has as its system Salmonella typhimurium. As to the kind of experiment: Mutagenicity in Salmonella typhimurium TA100 assessed as mutagenicity index at 1454.55 uM/plate incubated for 90 mins at 37 degC in presence of liver S9 fractions by Ames test relative to control. Conditions: salmonella enterica subsp. enterica serovar typhimurium, s9, 1.5 h. Format: toxicity, organism-based.
In series [24] the test system is Salmonella typhimurium. The series can be described thus: Mutagenicity in Salmonella typhimurium TA97a assessed as mutagenicity index at 616.38 uM/plate incubated for 90 mins at 37 degC in presence of liver S9 fractions by Ames test relative to control. The format is toxicity, organism-based. The following applies: salmonella enterica subsp. enterica serovar typhimurium, s9, 1.5 h.

Series [25] relates to Salmonella typhimurium. The series can be described thus: Mutagenicity in Salmonella typhimurium TA97a assessed as mutagenicity index at 905.66 uM/plate incubated for 90 mins at 37 degC in presence of liver S9 fractions by Ames test relative to control. The format is toxicity, organism-based. Conditions: salmonella enterica subsp. enterica serovar typhimurium, s9, 1.5 h.
The subject of series [26] is Salmonella typhimurium. As to the kind of experiment: Mutagenicity in Salmonella typhimurium TA97a assessed as mutagenicity index at 1185.19 uM/plate incubated for 90 mins at 37 degC in absence of liver S9 fractions by Ames test relative to control. Format: toxicity, organism-based. Conditions: salmonella enterica subsp. enterica serovar typhimurium, 1.5 h.
The test system of series [27] is Salmonella typhimurium. As to the kind of experiment: Mutagenicity in Salmonella typhimurium TA102 assessed as mutagenicity index at 1185.19 uM/plate incubated for 90 mins at 37 degC in absence of liver S9 fractions by Ames test relative to control. The following applies: salmonella enterica subsp. enterica serovar typhimurium, 1.5 h. Format: toxicity, organism-based.

In series [28] the test system is Salmonella typhimurium. The series can be described thus: Mutagenicity in Salmonella typhimurium TA98 assessed as mutagenicity index at 616.38 uM/plate incubated for 90 mins at 37 degC in presence of liver S9 fractions by Ames test relative to control. Format: toxicity, organism-based. Conditions: salmonella enterica subsp. enterica serovar typhimurium, s9, 1.5 h.

Series [29] concerns Salmonella typhimurium. As to the kind of experiment: Mutagenicity in Salmonella typhimurium TA100 assessed as mutagenicity index at 313.73 uM/plate incubated for 90 mins at 37 degC in presence of liver S9 fractions by Ames test relative to control. Format: toxicity, organism-based. Conditions: salmonella enterica subsp. enterica serovar typhimurium, s9, 1.5 h.
Series [30] concerns Salmonella typhimurium. The series can be described thus: Mutagenicity in Salmonella typhimurium TA98 assessed as mutagenicity index at 1185.19 uM/plate incubated for 90 mins at 37 degC in presence of liver S9 fractions by Ames test relative to control. Format: toxicity, organism-based. The following applies: salmonella enterica subsp. enterica serovar typhimurium, s9, 1.5 h.

Series [31] has as its system Salmonella typhimurium. As to the kind of experiment: Mutagenicity in Salmonella typhimurium TA98 assessed as mutagenicity index at 1185.19 uM/plate incubated for 90 mins at 37 degC in absence of liver S9 fractions by Ames test relative to control. Format: toxicity, organism-based. The following applies: salmonella enterica subsp. enterica serovar typhimurium, 1.5 h.

The subject of series [32] is Salmonella typhimurium. As to the kind of experiment: Mutagenicity in Salmonella typhimurium TA98 assessed as mutagenicity index at 313.73 uM/plate incubated for 90 mins at 37 degC in absence of liver S9 fractions by Ames test relative to control. The format is toxicity, organism-based. Conditions: salmonella enterica subsp. enterica serovar typhimurium, 1.5 h.

As a reminder, the IC50 is the concentration that inhibits the measured activity by half. The term CC50 denotes the concentration giving 50% cytotoxicity.

Molecules are shown by their SMILES.

As to `CS(=O)(=O)OCCCCCCCCCCCCn1cc(CCCO)nn1`, the Activity_index came to 1.1 in series [1]; 1.1 in series [2]; 1.3 in [4]; 1.3 in series [5]; 1.1 in series [8]; 0.9 in series [9]. Besides, the Activity_index worked out at 0.9 in series [11]; 0.9 in [13]; 1.4 in [14]; 1.3 in series [15]; 1 in [16]; 0.9 in series [18]. In addition, the IC50 in series [3] came to 14.2 µM; in series [7], 8.18 µM; in series [17], 28.5 µM. Also, in [6], the “Ratio CC50/IC50” value is 11.47. The Activity entry in series [10] was “Non-toxic”. Besides, in series [12], the CC50 at 72 h is 163 µM.
On to `CCOC(=O)c1cn(CCCCCCCCCOS(C)(=O)=O)nn1`, for which the Activity_index in series [19] is listed as 1.6; in series [20] it was 0.8; in series [21], 0.7; in series [22], 1.2; in [23], 0.9; in series [24], 0.9. Also, the Activity_index stood at 0.9 in series [25]; 1.3 in series [26]; 1.2 in [27]; 0.8 in series [28]; 0.9 in series [29]; 0.8 in series [30]. In addition, the Activity_index in series [31] and in [32] was 1.5 each time. Also, the IC50 in series [3] stood at 76.7 µM; in [7], 0.857 µM; in [17] it was 37.2 µM. Also, the “Ratio CC50/IC50” value in series [6] was found to be 12.82. In addition, in series [12], the 50% cytotoxic concentration (CC50) at 72 h turned out to be 983 µM.
